Experimental data published in US10253002B2, “Compounds and methods of treating infections” (Neoculi Pty Ltd., priority 2013, dated 2019).
In brackets after ≈: the same amount, converted by molar mass. Where two headings read alike, the source gives them in different places.

What was measured:
[1] = system: MRSA; experiment: Broth microdilution MIC, Example 7 (NCL812 and analogues); assay type: cell-based, Staphylococcus aureus; details: Staphylococcus aureus, MRSA, read-out: MIC
How it was run: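 MICs in μg/ml were read as growth inhibition by eye, checked at 600 nm absorbance against drug-free wells, following CLSI broth microdilution. Strains: two MRSA, two VRE; duplicates, repeated once more when results diverged beyond one dilution step.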

[2] = system: Streptococcus pneumoniae; experiment: Broth microdilution MIC (CLSI) in 4% LHB-CAMHB, Example 1; assay type: cell-based
Procedure: The powder was dissolved in 10 mL DMSO and 1 mL volumes were aliquoted into eppendorf tubes and stored at -80° C. […] Serial dilutions were prepared in 96 well plates were set up in a safety cabinet according to methods standard in the art. Briefly: 90 μL of the working antibiotic solution was added to each well in Column 12 of the plate, and mixed well, before 90 μL was transferred to column 11. The solutions were mixed again, and then transferred to the next column as before, continuing the dilutions through to column 3. Mixing the well requires the pick up and expulsion of 90 μL in each well 3-4 times before picking up and transferring the 90 μL to the next well. […] The bacterial solution was placed into a sterile trough and 10 μL of bacterial solution added into wells 2 through to 12 on each required row (dilution of 1:10, with final concentration of bacteria in wells=5×10^5 CFU/mL). The tray was sealed and incubated at 37° C. for 18-24 h. The purity of bacterial suspension was confirmed by streaking out 50 μL of the 1:20 dilution onto a SBA plate, which was incubated for 37° C. for 18 h and examined. Viable counts were carried out to ensure that the correct concentration of bacteria and been added to the wells. […] The following day the number of colonies on the plates was counted and the average count in 100 μL obtained. The study was multiplied by 10 to obtain a viable bacterial count per mL. Minimum inhibitory concentrations (μg/mL) were determined using the broth microdilution method recommended by the Clinical and Laboratory Standards Institute (CLSI) (Methods for Dilution Antimicrobial Susceptibility Tests for Bacteria That Grow Aerobically; Approved Standard-Seventh Edition. CLSI M7-A7, 2006; Performance Standards for Antimicrobial Disk and Dilution Susceptibility Tests for Bacteria Isolated from Animals; Approved Standard-Second Edition. CLSI […]-A2, 2002; Performance Standards for Antimicrobial Susceptibility Testing; CLSI M2-A9, 2006). […] Bacterial growth (turbidity) in the wells with antimicrobial was compared with the amount of growth (turbidity) in the growth-control well (containing no antimicrobial). All isolates were tested in duplicate, if there was a difference of greater than one two-fold dilution in the results, the test was repeated a third time. The purity of the isolates was closely monitored during testing by subculturing the prepared bacterial inoculum onto SBA. Control organisms (Enterococcus faecalis strain ATCC 29212, S. aureus strain ATCC 29213 and S. pneumoniae strain ATCC 49619) were used throughout the testing to monitor quality control. […] The MIC50, MIC90 and MIC range (minimum and maximum) were calculated for each of the bacterial groups.

CC1(C)S[C@@H]2[C@H](NC(=O)[C@H](N)c3ccccc3)C(=O)N2[C@H]1C(=O)O [Ampicillin]
MIC ([1]; MRSA 773, Phase I, 2nd): 64 µg/mL (≈ 183 µM)
MIC ([1]; MRSA 773, Phase II, 1st): 64 µg/mL (≈ 183 µM)
MIC ([1]; MRSA 773, Phase II, 2nd): 64 µg/mL (≈ 183 µM)
MIC ([1]; MRSA 778, Phase I, 1st): > 128 µg/mL
MIC ([1]; MRSA 778, Phase I, 2nd): > 128 µg/mL
MIC ([1]; MRSA 786, Phase I, 1st): 32 µg/mL (≈ 91.6 µM)
MIC ([1]; MRSA 786, Phase I, 2nd): 32 µg/mL (≈ 91.6 µM)
MIC ([1]; MRSA 786, Phase II, 1st): 32 µg/mL (≈ 91.6 µM)
MIC ([1]; MRSA 786, Phase II, 2nd): 32 µg/mL (≈ 91.6 µM)
MIC ([1]; MRSA 787, Phase I, 1st): > 128 µg/mL
MIC ([1]; MRSA 787, Phase I, 2nd): > 128 µg/mL
MIC ([1]; MRSA 787, Phase II, 1st): 64 µg/mL (≈ 183 µM)
MIC ([1]; MRSA 787, Phase II, 2nd): 64 µg/mL (≈ 183 µM)
MIC ([1]; MRSA 815, Phase I, 1st): 64 µg/mL (≈ 183 µM)
MIC ([1]; MRSA 815, Phase I, 2nd): 64 µg/mL (≈ 183 µM)
MIC ([1]; MRSA 815, Phase II, 1st): 32 µg/mL (≈ 91.6 µM)
MIC ([1]; MRSA 815, Phase II, 2nd): 32 µg/mL (≈ 91.6 µM)
MIC ([1]; MRSA 823, Phase I, 1st): > 128 µg/mL
MIC ([1]; MRSA 823, Phase I, 2nd): > 128 µg/mL
MIC ([1]; MRSA 844, Phase II, 1st): 64 µg/mL (≈ 183 µM)
MIC ([1]; MRSA 844, Phase II, 2nd): 32 µg/mL (≈ 91.6 µM)
MIC90 ([2]; Str. pneumoniae, 20 isolates): 0.25 µg/mL (≈ 0.715 µM)
MIC90 ([2]; Streptococcus pneumoniae isolates of Table 5, Test 1, read-out: MIC90): 0.25 µg/mL (≈ 0.715 µM)
MIC90 ([2]; Streptococcus pneumoniae isolates of Table 5, Test 2): 0.25 µg/mL (≈ 0.715 µM)
MIC ([2]; Streptococcus pneumoniae, ATCC49619, S. pneumoniae strain ATCC 49619, read-out: MIC of control strain (internal quality control)): 0.06 µg/mL
MIC ([2]; Streptococcus pneumoniae, ATCC49619, Strep. pneumoniae ATCC 49619, Test 1, read-out: MIC): < 0.25 µg/mL
MIC ([2]; Streptococcus pneumoniae, ATCC49619, Strep. pneumoniae ATCC 49619, Test 2, read-out: MIC): < 0.25 µg/mL
MIC ([2]; Streptococcus pneumoniae, Strep. pneumoniae 1, Test 1, read-out: MIC): < 0.25 µg/mL
MIC ([2]; Streptococcus pneumoniae, Strep. pneumoniae 1, Test 2, read-out: MIC): < 0.26 µg/mL
MIC ([2]; Streptococcus pneumoniae, Strep. pneumoniae 2, Test 1, read-out: MIC): < 0.26 µg/mL
MIC ([2]; Streptococcus pneumoniae, Strep. pneumoniae 2, Test 2, read-out: MIC): < 0.25 µg/mL
MIC ([2]; Streptococcus pneumoniae, Strep. pneumoniae 3, Test 1, read-out: MIC): < 0.25 µg/mL
MIC ([2]; Streptococcus pneumoniae, Strep. pneumoniae 3, Test 2, read-out: MIC): < 0.25 µg/mL
MIC ([2]; Streptococcus pneumoniae, Strep. pneumoniae 4, Test 1, read-out: MIC): < 0.25 µg/mL
MIC ([2]; Streptococcus pneumoniae, Strep. pneumoniae 4, Test 2, read-out: MIC): < 0.25 µg/mL
MIC ([2]; Streptococcus pneumoniae, Strep. pneumoniae 5, Test 1, read-out: MIC): < 0.25 µg/mL
MIC ([2]; Streptococcus pneumoniae, Strep. pneumoniae 5, Test 2, read-out: MIC): < 0.26 µg/mL
MIC ([2]; Streptococcus pneumoniae, Strep. pneumoniae 6, Test 1, read-out: MIC): < 0.26 µg/mL
MIC ([2]; Streptococcus pneumoniae, Strep. pneumoniae 6, Test 2, read-out: MIC): < 0.25 µg/mL
MIC ([2]; Streptococcus pneumoniae, Strep. pneumoniae 7, Test 1, read-out: MIC): < 0.25 µg/mL
MIC ([2]; Streptococcus pneumoniae, Strep. pneumoniae 7, Test 2, read-out: MIC): < 0.26 µg/mL
MIC ([2]; Streptococcus pneumoniae, Strep. pneumoniae 8, Test 1, read-out: MIC): < 0.25 µg/mL
MIC ([2]; Streptococcus pneumoniae, Strep. pneumoniae 8, Test 2, read-out: MIC): < 0.25 µg/mL
MIC ([2]; Streptococcus pneumoniae, Strep. pneumoniae 9, Test 1, read-out: MIC): < 0.26 µg/mL
MIC ([2]; Streptococcus pneumoniae, Strep. pneumoniae 9, Test 2, read-out: MIC): < 0.25 µg/mL
MIC ([2]; Streptococcus pneumoniae, Strep. pneumoniae 10, Test 1, read-out: MIC): < 0.06 µg/mL
MIC ([2]; Streptococcus pneumoniae, Strep. pneumoniae 10, Test 2, read-out: MIC): < 0.06 µg/mL
MIC ([2]; Streptococcus pneumoniae, Strep. pneumoniae 12, Test 1, read-out: MIC): < 0.06 µg/mL
MIC ([2]; Streptococcus pneumoniae, Strep. pneumoniae 12, Test 2, read-out: MIC): < 0.06 µg/mL
MIC ([2]; Streptococcus pneumoniae, Strep. pneumoniae 13, Test 1, read-out: MIC): < 0.06 µg/mL
MIC ([2]; Streptococcus pneumoniae, Strep. pneumoniae 13, Test 2, read-out: MIC): < 0.06 µg/mL
MIC ([2]; Streptococcus pneumoniae, Strep. pneumoniae 14, Test 1, read-out: MIC): < 0.06 µg/mL
MIC ([2]; Streptococcus pneumoniae, Strep. pneumoniae 14, Test 2, read-out: MIC): < 0.06 µg/mL
MIC ([2]; Streptococcus pneumoniae, Strep. pneumoniae 15, Test 1, read-out: MIC): 0.25 µg/mL (≈ 0.715 µM)
MIC ([2]; Streptococcus pneumoniae, Strep. pneumoniae 15, Test 2, read-out: MIC): 0.25 µg/mL (≈ 0.715 µM)
MIC ([2]; Streptococcus pneumoniae, Strep. pneumoniae 16, Test 1, read-out: MIC): 2 µg/mL (≈ 5.72 µM)
MIC ([2]; Streptococcus pneumoniae, Strep. pneumoniae 16, Test 2, read-out: MIC): 2 µg/mL (≈ 5.72 µM)
MIC ([2]; Streptococcus pneumoniae, Strep. pneumoniae 18, Test 1, read-out: MIC): 0.25 µg/mL (≈ 0.715 µM)
MIC ([2]; Streptococcus pneumoniae, Strep. pneumoniae 18, Test 2, read-out: MIC): 0.25 µg/mL (≈ 0.715 µM)
MIC ([2]; Streptococcus pneumoniae, Strep. pneumoniae 19, Test 1, read-out: MIC): 0.25 µg/mL (≈ 0.715 µM)
MIC ([2]; Streptococcus pneumoniae, Strep. pneumoniae 19, Test 2, read-out: MIC): 0.25 µg/mL (≈ 0.715 µM)
MIC ([2]; Streptococcus pneumoniae, Strep. pneumoniae 20, Test 1, read-out: MIC): 2 µg/mL (≈ 5.72 µM)
MIC ([2]; Streptococcus pneumoniae, Strep. pneumoniae 20, Test 2, read-out: MIC): 2 µg/mL (≈ 5.72 µM)
MIC50 ([2]; Streptococcus pneumoniae, Str. pneumoniae, 20 isolates): < 0.25 µg/mL
MIC ([2]; Streptococcus pneumoniae, Str. pneumoniae, 20 isolates, read-out: MIC mode): < 0.25 µg/mL
